Patent publication US11116722B2, “Antifungal dry powders” (priority 2016, dated 2021)

Test system: Calu-3 cell line
Description: A bio-relevant dissolution testing system was used based on mimicking the air-liquid interface at the respiratory epithelium interface using a cell-based in vitro method. A modified next generation impactor that incorporated cell culture plates onto collection stages (cNGI) was used to uniformly deposit materials onto the cell cultures. Dissolution and permeation of the drug through the epithelial cell monolayer was measured.
Epithelial cell monolayers grown at the air-liquid interface in Snapwell™ (Corning Costar, Mass., USA) permeable insert were integrated into the cNGI. […] The transepithelial electrical resistance (TEER) was measured using an EVOM2 chopstick electrode connected to an EVOM2 Epithelial Voltohmmeter (World Precision Instruments, Hitchin, United Kingdom) and monolayers with a TEER above 450Ω.cm^2 were deemed confluent. […]
Post-dosing of the dose on to the Snapwells from stage 4, the Snapwells were transferred to 6-well plates, which contained 2 mL of PBS pH 7.4+2.0% SDS maintained at 37° C. Basolateral samples were taken at different time points and drug content was measured on an Agilent (Santa Clara, Calif., USA) 1260 Infinity series HPLC. Total dose delivered to the cells was measured from the total amount of drug dissolved over the time-course and from lysing cells post experimentation. […]

SMILES: CCC(C)n1ncn(-c2ccc(N3CCN(c4ccc(OCC5COC(Cn6cncn6)(c6ccc(Cl)cc6Cl)O5)cc4)CC3)cc2)c1=O (centres unmarked) [Pure ITZ, Itraconazole]
- dissolution and permeability kinetics / rate of diffusion (in words): slower dissolution and permeability kinetics than the other formulations
- Rate of Diffusion (human, pH 7.4): 1.81 cm/s
